{
  "source": "patent US9567336B2",
  "about": "“Conjugated TLR7 and/or TLR8 and TLR2 agonists” (CAYLA, priority 2012, dated 2017)",
  "key": {"human TLR7": {"molecular_target": "T1, human TLR7 (Homo sapiens, UniProt Q9NYK1)", "T1 construct": "host or cells: HEK293 (HEK-Blue hTLR7)", "T1 sequence (Q9NYK1 27-1049)": "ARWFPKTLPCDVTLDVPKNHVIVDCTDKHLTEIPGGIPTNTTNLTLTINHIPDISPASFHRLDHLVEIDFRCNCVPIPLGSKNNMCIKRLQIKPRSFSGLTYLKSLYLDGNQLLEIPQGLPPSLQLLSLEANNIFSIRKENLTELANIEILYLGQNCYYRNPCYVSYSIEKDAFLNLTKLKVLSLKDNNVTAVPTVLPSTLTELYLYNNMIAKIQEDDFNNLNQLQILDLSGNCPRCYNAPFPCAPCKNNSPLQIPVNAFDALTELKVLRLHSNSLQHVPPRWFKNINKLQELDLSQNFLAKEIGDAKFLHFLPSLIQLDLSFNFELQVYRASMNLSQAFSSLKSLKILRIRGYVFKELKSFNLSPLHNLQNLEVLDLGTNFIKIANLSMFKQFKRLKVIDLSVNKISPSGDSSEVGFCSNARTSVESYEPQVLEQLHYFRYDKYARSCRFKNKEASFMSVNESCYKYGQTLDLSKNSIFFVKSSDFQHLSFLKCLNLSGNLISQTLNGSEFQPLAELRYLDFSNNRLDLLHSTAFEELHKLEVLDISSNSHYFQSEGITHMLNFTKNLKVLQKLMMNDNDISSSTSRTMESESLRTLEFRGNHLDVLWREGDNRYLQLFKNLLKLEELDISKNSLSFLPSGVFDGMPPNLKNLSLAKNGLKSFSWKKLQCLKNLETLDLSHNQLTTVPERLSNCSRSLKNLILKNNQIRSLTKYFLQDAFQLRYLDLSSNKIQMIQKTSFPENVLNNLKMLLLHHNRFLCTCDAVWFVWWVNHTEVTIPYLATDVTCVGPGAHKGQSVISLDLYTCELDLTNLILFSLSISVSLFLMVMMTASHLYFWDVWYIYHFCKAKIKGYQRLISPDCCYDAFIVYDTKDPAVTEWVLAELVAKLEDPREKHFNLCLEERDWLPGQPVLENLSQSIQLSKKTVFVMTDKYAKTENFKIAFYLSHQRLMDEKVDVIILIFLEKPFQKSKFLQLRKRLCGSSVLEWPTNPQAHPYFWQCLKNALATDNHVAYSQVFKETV", "assay": "HEK-Blue hTLR7 NF-κB/AP-1 SEAP reporter cell assay", "format": "cell-based", "settings": "HEK-Blue hTLR7 reporter cells, 10 μg/mL to 10 pg/ml, 24 hours, OD at 655 nm; FIGS. 1A, 1B", "protocol": "(§1) Some conjugated compounds of the invention were tested for their ability to activate TLR7 and TLR2 receptor signaling. Cell-based assays were carried out using TLR7 and TLR2 reporter cell lines (InvivoGen). The reporter cell lines are engineered HEK293 cells, a human embryonic kidney cell line (ATCC, CRL-1573) that stably express either murine TLR7 (HEK-Blue™ mTLR7) or human TLR7 (HEK-Blue™ hTLR7) or murine TLR2 (HEK-Blue™ mTLR2) or human TLR2 (HEK-Blue™ hTLR2) with an NF-κB-inducible secreted embryonic alkaline phosphatase (SEAP) as the reporter gene. The SEAP reporter gene is placed under the control of the NF-κB and AP-inducible promoter. Stimulation with the corresponding TLR ligand activates NF-κB and AP-1, which induces the production of SEAP. Detection of SEAP is measured following culturing cells in HEK-Blue™ Detection media (InvivoGen). HEK-Blue™ Detection contains a SEAP substrate, which upon hydrolysis by SEAP produces a colorimetric change allowing for detection of SEAP as the protein is secreted. […] These assays were carried out using RAW-Blue™ Cells (InvivoGen), derived from RAW 264.7 mouse leukemic monocytic macrophage cell line (ATCC, CRL 2278) stably overexpressing a NF-κB/AP-1 inducible SEAP reporter constructs.\n(§2) To perform the assay, cells were seeded on 96 well microliter plates at 50,000 or 100,000 cells per well for HEK-Blue™ Cells and RAW-Blue™ Cells respectively, and cultured at 37° C. in the presence of the conjugated compounds. The conjugated compounds were prepared as follows: First, stock solutions of the small molecule conjugated compounds of the invention were prepared in ethanol or water to a concentration of 10 mg/ml. A working dilution of the conjugated TLR7-TLR2 small molecules was made up in water and added to cells at a final range of concentrations from 10 μg/mL to 10 pg/ml. The working dilutions of the conjugated TLR7-TLR2 small molecules as the stated concentrations were directly added to the reporter cell lines and incubated at 37° C. for 24 hours. After 24 hours of incubation, the effect on reporter gene activity was determined by reading the OD at 655 nm using iMark™ Microplate Reader (BIO-RAD).\n(§3) The conjugated compounds were tested alone for their ability to specifically activate TLR7 and TLR2, alongside the known TLR7 activators R848 or CL264 (InvivoGen) and the TLR2 agonists Pam2CSK4 or Pam3CSK4 (InvivoGen). The specificity of the TLR activity was determined by use of reporter cell lines to the other TLRs (data not shown). […] The molecules show a tendency to activate mouse TLR7 with greater sensitivity than human TLR7. […] Furthermore, dose-dependent responses of the conjugated compounds indicate significant TLR activities of TLR7 and TLR2 compared to the corresponding controls."}, "human TLR2": {"molecular_target": "T2, human TLR2 (Homo sapiens, UniProt O60603)", "T2 construct": "host or cells: HEK293 (HEK-Blue hTLR2)", "T2 sequence (O60603 21-784)": "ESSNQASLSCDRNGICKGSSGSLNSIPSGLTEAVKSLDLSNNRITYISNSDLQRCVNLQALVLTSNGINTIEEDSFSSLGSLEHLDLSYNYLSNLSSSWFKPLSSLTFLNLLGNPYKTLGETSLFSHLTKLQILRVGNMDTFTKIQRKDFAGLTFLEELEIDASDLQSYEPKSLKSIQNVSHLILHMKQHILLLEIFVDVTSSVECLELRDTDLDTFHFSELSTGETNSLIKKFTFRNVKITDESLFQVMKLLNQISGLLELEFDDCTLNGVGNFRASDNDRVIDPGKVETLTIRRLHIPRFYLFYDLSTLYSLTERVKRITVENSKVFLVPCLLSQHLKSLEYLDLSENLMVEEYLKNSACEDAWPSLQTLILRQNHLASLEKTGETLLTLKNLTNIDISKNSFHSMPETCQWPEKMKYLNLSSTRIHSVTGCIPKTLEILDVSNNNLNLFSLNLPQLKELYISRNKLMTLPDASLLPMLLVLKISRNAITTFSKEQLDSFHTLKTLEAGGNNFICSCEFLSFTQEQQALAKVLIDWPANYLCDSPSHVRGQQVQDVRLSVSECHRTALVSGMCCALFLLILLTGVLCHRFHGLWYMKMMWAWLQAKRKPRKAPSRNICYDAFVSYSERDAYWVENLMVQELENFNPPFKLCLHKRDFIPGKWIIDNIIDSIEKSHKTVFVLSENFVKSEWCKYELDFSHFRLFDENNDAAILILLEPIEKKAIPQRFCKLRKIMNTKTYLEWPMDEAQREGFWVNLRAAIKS", "assay": "HEK-Blue hTLR2 NF-κB/AP-1 SEAP reporter cell assay", "format": "cell-based", "settings": "HEK-Blue hTLR2 reporter cells, 10 μg/mL to 10 pg/ml, 24 hours, OD at 655 nm; FIGS. 3A, 3B", "protocol": "as §1, §2, §3"}, "B16-F1 cells": {"test_system": "B16-F1 cells", "assay": "B16-F1 allograft tumor mouse model, intra-tumoral injections", "format": "in vivo, C57BL/6 mice", "settings": "3 intra-tumoral injections", "protocol": "To investigate whether administering in vivo a therapeutically effective amount of a composition concerned by the invention into a tumor environment affects tumor growth, C57BL/6 mice (Janvier S.A.S.) were shaved (on their backs) and were injected subcutaneously with approximately 50 μl (5×10^5) of viable B16-F1 cells (ATCC, CRL-6323) under anesthesia, using 7 mice per group. Once the tumor volume reached about 5 mm in diameter, around day 7 after tumor cells were grafted, the mice were divided into 2 groups. A first group (control) received intra-tumoral injections of vehicle (Glucose 5% ethanol 8% that is often used to facilitate drug solubilization and so enhance delivery), for a total of 3 injections. All animal work was carried out at the animal facility at the Institut de Pharmacologie et de Biologie Structurale (IPBS) in Toulouse, in accordance with institutional guidelines. […] By day 51 following the tumor cell graft, 60% of mice in the CL401 conjugated TLR7-TLR2 small molecule treated group were still alive. In contrast, by day 26, there was no survival of mice from the control group of vehicle treated. Tumor growth was monitored and measured with calipers after day 5 of grafting tumor cells into mice and then every 2 days after. […] Tumor volume in mm^3 was determined according to the formula V=W^2×L/2, where L=length (mm) and W=width (mm)"}},
  "data": [
    {"smiles": "CCCCCCCCCCCCCCCC(=O)OCC(CSC[C@H](N)C(=O)Nc1ccc(Cn2c(O)nc3c(N)nc(NCCCC)nc32)cc1)OC(=O)CCCCCCCCCCCCCCC", "note": "(mixture of isomers) [CL401, (R)-3-(2-amino-3-(4-((6-amino-2-(butylamino)-8-hydroxy-9H-purin-9-yl)methyl)phenylamino)-3-oxopropylthio)propane-1,2-diyl dipalmitate]", "values": [
      {"measurement": "ability to activate TLR7 receptors (human TLR7)", "setting": "human TLR7", "value": "activate TLR7 receptors"},
      {"measurement": "ability to activate TLR2 receptor (human TLR2)", "setting": "human TLR2", "value": "activate TLR2 receptor"},
      {"measurement": "mice still alive (survival)", "setting": "B16-F1 cells; by day 51 following the tumor cell graft, FIG. 6B", "value": 60, "unit": "%"},
      {"measurement": "tumor growth", "setting": "B16-F1 cells; compared to vehicle control mice, FIG. 6A", "value": "significantly reduced"}
    ]}
  ]
}
